Test results from patent US10392368B2, “Pyrazolo and triazolo bicyclic compounds as JAK kinase inhibitors” (THERAVANCE BIOPHARMA R&D IP, LLC, priority 2017, dated 2019).

Key:
[1] = test system: oxazolone-induced colitis; assay: Mouse model of oxazolone-induced colitis; type: in vivo; details: 3 mg/kg (PO, BID)
Experimental: Oxazolone-induced colitis is an experimental model that has a histological resemblance to human ulcerative colitis (Heller et al. Immunology, 2002, 17, 629-638). Adult BALB/C mice from Harlan were used in the assay. On day 1, animals were lightly anesthetized with isoflurane and the hairs between the shoulder were carefully removed before oxazolone (4%, 150 μL, 4:1 acetone:olive oil formulation) or vehicle solution was slowly applied for skin sensitization. Seven days after skin sensitization, the mice were fasted around 6 hours prior, anesthetized with ketamine/xylazine injection, and a 1 mL syringe equipped with a 3.5-F catheter, filled with oxazolone solution, was inserted carefully about 4 cm into the colon of the mouse. Following insertion, 50 μL of the oxazolone solution (0.8% in 1:1 ethanol:water formulation) was injected very slowly (over 30 sec using an injection pump) into the colon. Drug treatment (PO, QD or BID or TID) or vehicle was initiated a day prior to the oxazolone intrarectal (IR) challenge. Two-day post oxazolone intrarectal challenge, the disease was assessed by treatment-blinded experimenters for each mouse according to the criteria score: stool consistency score (0, normal; 2, loose; 4, diarrhea), gross bleeding score (0, absence; 2, blood tinged; 4, presence); Combined stool score endpoint=stool consistency score+stool blood score.
Select compounds were tested in the assay.

JAK2 = molecular target: T1, JAK2 (Homo sapiens, UniProt O60674); assay: Biochemical JAK2 kinase assay (LanthaScreen)
T1 construct: GST; purchased Life Technologies
In short: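 pKi values derive from pIC50 via Cheng-Prusoff, with IC50 from a 4-parameter fit of percent-inhibition TR-FRET data using Tb-anti-pSTAT1 (pTyr701) detection. Compound, GST-JAK2 and GFP-STAT1 substrate were pre-incubated 1 h, then ATP started a 1 h ambient reaction (HEPES pH 7.5, 10 mM MgCl2, 1% DMSO).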

Tyk2 = molecular target: T2, Tyk2 (Homo sapiens, UniProt P29597); assay: Biochemical Tyk2 kinase assay (LanthaScreen)
T2 construct: GST; purchased Life Technologies
In short: (§1)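 TR-FRET read-out: terbium anti-pSTAT1 (pTyr701) antibody, 2 nM, with 10 mM EDTA quench, emission ratio 520/495 nm. GST-JAK phosphorylates GFP-STAT1 peptide for 1 h at ambient temperature after 1 h compound pre-incubation. pIC50 from dose-response converted to pKi by Cheng-Prusoff.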

JAK3 = molecular target: T3, JAK3 (Homo sapiens, UniProt P52333); assay: Biochemical JAK3 kinase assay (LanthaScreen); parameters: GST; purchased Life Technologies; details: for JAK3 (pKi)-JAK1 (pKi): selectivity JAK3 over JAK1, difference of pKi
T3 sequence (P52333 1-1124): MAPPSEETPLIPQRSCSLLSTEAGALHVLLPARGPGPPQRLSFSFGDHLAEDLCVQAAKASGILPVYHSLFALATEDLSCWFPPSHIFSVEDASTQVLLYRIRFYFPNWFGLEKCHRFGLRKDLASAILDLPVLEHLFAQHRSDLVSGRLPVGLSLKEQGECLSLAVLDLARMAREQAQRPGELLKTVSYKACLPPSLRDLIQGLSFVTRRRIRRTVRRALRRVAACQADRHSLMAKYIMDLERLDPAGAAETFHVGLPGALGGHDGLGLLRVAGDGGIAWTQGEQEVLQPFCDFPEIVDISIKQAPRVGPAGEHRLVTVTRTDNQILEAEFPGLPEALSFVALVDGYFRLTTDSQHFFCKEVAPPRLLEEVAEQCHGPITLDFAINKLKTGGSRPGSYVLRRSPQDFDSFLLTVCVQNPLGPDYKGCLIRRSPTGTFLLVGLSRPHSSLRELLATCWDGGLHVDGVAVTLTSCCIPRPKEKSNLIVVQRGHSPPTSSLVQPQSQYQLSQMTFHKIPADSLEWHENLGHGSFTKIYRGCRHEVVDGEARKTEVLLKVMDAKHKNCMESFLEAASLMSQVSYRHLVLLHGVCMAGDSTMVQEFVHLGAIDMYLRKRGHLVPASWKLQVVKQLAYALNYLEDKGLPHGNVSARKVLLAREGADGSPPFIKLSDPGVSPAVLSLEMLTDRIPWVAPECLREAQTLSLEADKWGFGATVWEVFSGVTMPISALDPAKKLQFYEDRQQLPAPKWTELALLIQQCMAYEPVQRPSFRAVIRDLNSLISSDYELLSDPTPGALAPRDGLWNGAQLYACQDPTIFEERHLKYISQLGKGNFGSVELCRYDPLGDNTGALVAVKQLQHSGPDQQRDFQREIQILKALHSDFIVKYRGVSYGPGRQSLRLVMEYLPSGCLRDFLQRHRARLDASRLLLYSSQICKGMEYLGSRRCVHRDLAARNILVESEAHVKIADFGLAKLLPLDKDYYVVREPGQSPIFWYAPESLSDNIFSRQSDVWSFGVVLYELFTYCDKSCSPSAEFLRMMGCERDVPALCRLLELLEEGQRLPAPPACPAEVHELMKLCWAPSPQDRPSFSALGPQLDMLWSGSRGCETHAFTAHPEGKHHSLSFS
In short: as §1

JAK1 = molecular target: T4, JAK1 (Homo sapiens, UniProt P23458); assay: Biochemical JAK1 kinase assay (LanthaScreen)
T4 construct: GST; purchased Life Technologies
In short: as §1

[2] = test system: IL-2 stimulated pSTAT5 in Tall-1 T cells; assay: Cellular JAK3 potency assay: inhibition of IL-2 stimulated pSTAT5 in Tall-1 T cells; type: cell-based, human; details: IL-2 stimulated pSTAT5, Tall-1 T cells
In short: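 Tall-1 human T cells were preincubated with compound for 1 h at 37° C, then stimulated with IL-2 (300 ng/ml final) for 30 min. STAT5 phosphorylation in lysates was read by AlphaLisa bead emission, and IC50 from inhibition curves is given as pIC50 (mean±SD).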

[3] = Colon and plasma mouse pharmacokinetics; type: in vivo; details: mouse, colon tissue / plasma; male Balb/c mice, 10 mg/kg PO; 0.5, 2 and 6 hours; read-out: colon to plasma ratio (colon AUC to plasma AUC)
Experimental: 6 male Balb/c mice were administered 10 mg/kg of compound in 1% HPMC+0.1% Tween-80 by PO administration. At 0.5, 2 and 6 hours after dose administration, animals were anesthetized, and terminal blood samples were collected by cardiac puncture, followed by collection of colon contents and colon tissue.
Blood samples were collected into K2EDTA and stored on wet ice until processed to plasma by centrifugation (12000 rpm at 4° C.). Plasma samples were transferred to cluster tubes and placed on dry ice prior to freezer storage. The colon contents from each animal were collected at each terminal blood collection time point. The colon tissues were flushed with saline and patted dry. The colon and colon content tissues were homogenized using sterile water containing 0.1% formic acid 9:1 (water:tissue, v/w). The homogenized tissues and colon contents were transferred to cluster tubes and placed on dry ice prior to freezer storage. All samples were analyzed using LC/MS/MS against analytical standards.
The composite pharmacokinetic parameters of the compounds were determined by non-compartmental analysis using Phoenix WinNonlin Version 6 (Certara, St. Louis, Mo.) and using mean values from 2 animals/time point. For plasma concentrations below the quantification limit (BQL), the lowest concentration measurable or the BLOQ (below limit of quantification) was used.
A colon to plasma ratio was determined as the ratio of the colon AUC to the plasma AUC.

[4] = test system: IL-2 stimulated pSTAT5 in CD4+ T cells; assay: Inhibition of IL-2 stimulated pSTAT5 in CD4+ T cells isolated from murine splenocytes; type: cell-based; details: Mus musculus, AlphaLisa, read-out: pIC50, inhibition of IL-2 stimulated pSTAT5 (converted)
Experimental: The potency of test compounds for inhibition of interleukin-2 (IL-2) stimulated STAT5 phosphorylation was measured in the CD4+ T cells isolated from murine splenocytes using AlphaLisa. Because IL-2 signals through JAK3, this assay provides a measure of JAK3 cellular potency in mouse.
Phosphorylated STAT5 was measured via the AlphaLISA SureFire Ultra pSTAT5 (Tyr694/699) kit (PerkinElmer).
CD4+ T cells were isolated from murine splenocytes via negative selection on a magnetic column (Miltnyi Biotec) and re-suspended in assay media (phenol red-free DMEM (Life Technologies) supplemented with 10% FBS (ATCC)). Cells were seeded at 50,000 cells/well in assay media (2 μL/well). Compounds were serially diluted in DMSO and diluted to 2× final concentration in assay media. Compound was added (4 μl/well) and the cells incubated at 37° C., 5% CO2 for 1 hour, followed by the addition of IL-2 (R&D Systems; final concentration 7 ng/ml) in pre-warmed assay media (2 μL) for 30 minutes. After cytokine stimulation, cells were lysed with 2 μl of 5× AlphaLisa Lysis Buffer (PerkinElmer). The lysate was shaken at 900 rpm for 10 minutes at room temperature (RT). Phosphorylated STAT5 was measured via the pSTAT5 AlphaLisa kit (PerkinElmer). Freshly prepared acceptor bead mixture was dispensed onto lysate (5 ul) under green filtered <100 lux light. Plates were shaken at 900 rpm for 2 mins, briefly spun down, and incubated for 2 hrs at RT in the dark. Donor beads were dispensed (5 μl) under green filtered <100 lux light. Plates were shaken at 900 rpm for 2 mins, briefly spun down, and incubated overnight at RT in the dark. Luminescence was measured with excitation at 689 nm and emission at 570 nm using an EnVision plate reader (PerkinElmer) under green filtered <100 lux light.
To determine the inhibitory potency of test compounds in response to IL-2, the average emission intensity of beads bound to pSTAT5 was measured in primary CD4+ T cells isolated from murine splenocytes. IC50 values were determined from analysis of the inhibition curves of signal intensity vs compound concentration. Data are expressed as pIC50 (negative decadic logarithm IC50) values (mean±standard deviation).

[5] = Dynamic moisture sorption (DMS) assessment; type: physicochemical; details: 25° C.; for hygroscopicity: DMS, 5% to 90% relative humidity; for weight gain (moisture uptake): humidity range of 5% to 90% relative humidity
Experimental: Dynamic moisture sorption (DMS) measurements were performed using a VTI atmospheric microbalance, SGA-100 system (VTI Corp., Hialeah, Fla. 33016). A weighed sample was used and the humidity was lowest possible value (close to 0% RH) at the start of the analysis. The DMS analysis consisted of an initial drying step (0% RH) for 120 minutes, followed by two cycles of sorption and desorption with a scan rate of 5% RH/step over the humidity range of 5% RH to 90% RH. The DMS run was performed isothermally at 25° C.

T4 sequence (P23458 whole entry): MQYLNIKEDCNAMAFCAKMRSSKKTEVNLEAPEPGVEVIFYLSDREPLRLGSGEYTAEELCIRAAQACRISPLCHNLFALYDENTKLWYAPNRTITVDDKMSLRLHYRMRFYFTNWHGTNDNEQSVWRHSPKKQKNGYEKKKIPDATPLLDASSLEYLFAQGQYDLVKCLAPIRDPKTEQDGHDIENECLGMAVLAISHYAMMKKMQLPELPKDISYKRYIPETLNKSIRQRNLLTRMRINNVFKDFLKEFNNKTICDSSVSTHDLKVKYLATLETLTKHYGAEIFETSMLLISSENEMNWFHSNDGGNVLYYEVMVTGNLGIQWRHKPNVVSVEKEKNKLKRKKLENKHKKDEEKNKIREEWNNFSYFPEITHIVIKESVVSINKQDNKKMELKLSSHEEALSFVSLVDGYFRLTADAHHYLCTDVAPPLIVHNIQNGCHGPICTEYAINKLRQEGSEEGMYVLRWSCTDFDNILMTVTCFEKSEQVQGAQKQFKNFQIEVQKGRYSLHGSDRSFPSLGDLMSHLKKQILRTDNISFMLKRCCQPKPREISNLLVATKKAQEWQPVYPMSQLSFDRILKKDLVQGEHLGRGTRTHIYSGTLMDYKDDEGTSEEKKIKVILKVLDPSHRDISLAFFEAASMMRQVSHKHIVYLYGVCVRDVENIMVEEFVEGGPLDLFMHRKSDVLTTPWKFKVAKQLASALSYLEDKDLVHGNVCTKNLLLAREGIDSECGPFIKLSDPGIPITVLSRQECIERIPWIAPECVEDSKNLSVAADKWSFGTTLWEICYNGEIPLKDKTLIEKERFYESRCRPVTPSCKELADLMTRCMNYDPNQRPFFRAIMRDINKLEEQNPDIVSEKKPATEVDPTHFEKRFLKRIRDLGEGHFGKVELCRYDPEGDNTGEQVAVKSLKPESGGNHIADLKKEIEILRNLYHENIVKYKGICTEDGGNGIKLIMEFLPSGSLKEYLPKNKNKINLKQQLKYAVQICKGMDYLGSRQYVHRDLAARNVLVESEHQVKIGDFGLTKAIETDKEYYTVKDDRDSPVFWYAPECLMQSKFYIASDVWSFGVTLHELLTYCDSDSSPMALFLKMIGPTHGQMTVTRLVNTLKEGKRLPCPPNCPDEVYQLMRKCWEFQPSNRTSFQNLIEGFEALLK
T2 sequence (P29597 whole entry): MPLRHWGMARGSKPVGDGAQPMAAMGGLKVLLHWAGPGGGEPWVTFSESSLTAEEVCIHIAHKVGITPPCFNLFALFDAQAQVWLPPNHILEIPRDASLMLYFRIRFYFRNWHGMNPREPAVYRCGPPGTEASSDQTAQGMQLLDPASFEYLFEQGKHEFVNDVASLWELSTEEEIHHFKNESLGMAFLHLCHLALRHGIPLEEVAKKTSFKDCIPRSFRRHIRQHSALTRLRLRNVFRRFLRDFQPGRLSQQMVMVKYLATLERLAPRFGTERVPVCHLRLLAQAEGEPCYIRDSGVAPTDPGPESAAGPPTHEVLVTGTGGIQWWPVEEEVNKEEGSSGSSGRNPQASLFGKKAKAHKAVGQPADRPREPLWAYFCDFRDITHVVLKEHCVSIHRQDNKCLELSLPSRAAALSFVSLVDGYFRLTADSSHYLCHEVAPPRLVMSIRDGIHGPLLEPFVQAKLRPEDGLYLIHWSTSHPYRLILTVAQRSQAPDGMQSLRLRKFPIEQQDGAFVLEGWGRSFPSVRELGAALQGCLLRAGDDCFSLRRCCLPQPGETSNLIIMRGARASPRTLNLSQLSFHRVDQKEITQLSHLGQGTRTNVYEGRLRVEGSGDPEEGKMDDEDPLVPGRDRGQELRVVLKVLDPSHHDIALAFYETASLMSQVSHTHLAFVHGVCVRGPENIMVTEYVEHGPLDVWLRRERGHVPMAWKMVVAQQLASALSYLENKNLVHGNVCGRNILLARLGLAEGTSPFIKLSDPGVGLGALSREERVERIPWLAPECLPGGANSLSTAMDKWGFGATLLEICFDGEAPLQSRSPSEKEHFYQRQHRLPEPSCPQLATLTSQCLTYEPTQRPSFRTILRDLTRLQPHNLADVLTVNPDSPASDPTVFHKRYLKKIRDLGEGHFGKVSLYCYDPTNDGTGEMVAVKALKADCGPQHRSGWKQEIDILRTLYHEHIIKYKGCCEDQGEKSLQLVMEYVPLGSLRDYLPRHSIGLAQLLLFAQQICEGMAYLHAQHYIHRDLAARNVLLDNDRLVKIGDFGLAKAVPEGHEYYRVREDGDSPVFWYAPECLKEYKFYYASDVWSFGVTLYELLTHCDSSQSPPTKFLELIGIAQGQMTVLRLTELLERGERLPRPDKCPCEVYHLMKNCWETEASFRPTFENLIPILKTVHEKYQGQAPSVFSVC
T1 sequence (O60674 whole entry): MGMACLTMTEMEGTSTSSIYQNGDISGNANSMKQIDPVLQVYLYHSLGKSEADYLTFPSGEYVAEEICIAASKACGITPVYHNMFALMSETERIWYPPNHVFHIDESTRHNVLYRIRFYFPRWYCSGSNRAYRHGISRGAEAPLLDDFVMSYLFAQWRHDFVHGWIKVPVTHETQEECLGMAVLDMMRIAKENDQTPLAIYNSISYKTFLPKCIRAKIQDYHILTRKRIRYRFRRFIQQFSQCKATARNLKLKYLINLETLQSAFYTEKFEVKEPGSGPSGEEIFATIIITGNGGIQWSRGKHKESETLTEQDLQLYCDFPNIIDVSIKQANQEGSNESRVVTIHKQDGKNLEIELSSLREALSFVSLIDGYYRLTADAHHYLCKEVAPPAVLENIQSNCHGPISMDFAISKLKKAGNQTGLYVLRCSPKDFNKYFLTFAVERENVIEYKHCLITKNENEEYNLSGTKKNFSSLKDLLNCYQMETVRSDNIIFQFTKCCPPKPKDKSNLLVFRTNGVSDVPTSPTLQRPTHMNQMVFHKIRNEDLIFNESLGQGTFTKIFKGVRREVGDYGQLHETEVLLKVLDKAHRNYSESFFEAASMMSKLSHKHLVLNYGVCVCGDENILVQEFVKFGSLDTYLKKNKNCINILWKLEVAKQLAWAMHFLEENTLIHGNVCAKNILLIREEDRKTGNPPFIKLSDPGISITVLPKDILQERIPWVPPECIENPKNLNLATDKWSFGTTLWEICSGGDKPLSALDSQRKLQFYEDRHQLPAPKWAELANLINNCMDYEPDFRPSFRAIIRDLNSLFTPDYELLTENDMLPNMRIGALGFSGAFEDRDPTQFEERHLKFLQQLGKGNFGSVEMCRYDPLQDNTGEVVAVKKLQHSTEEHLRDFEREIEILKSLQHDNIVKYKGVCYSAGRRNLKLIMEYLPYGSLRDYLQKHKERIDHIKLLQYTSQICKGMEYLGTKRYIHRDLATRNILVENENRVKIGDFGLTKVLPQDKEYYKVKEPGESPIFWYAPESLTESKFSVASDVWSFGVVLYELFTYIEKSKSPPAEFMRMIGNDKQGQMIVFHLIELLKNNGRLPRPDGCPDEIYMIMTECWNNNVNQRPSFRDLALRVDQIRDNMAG

C=CC(=O)N1CC2(CC(Oc3cc(-c4ccc(O)c(Cl)c4)cc4[nH]ncc34)C2)C1 [Compound 15-1]
combined stool score endpoint as compared with vehicle treated animals [1]: statistically significant decrease
JAK 2 (pKi) (JAK2): E (a pKi value of 7 or below (Ki of 100 nM or above))
Tyk 2 (pKi) (Tyk2): E (a pKi value of 7 or below (Ki of 100 nM or above))
JAK 3 (pKi) (JAK3): B (a pKi value between 9 and 10 (Ki between 1 nM and 0.1 nM))
JAK3 (pKi)-JAK1 (pKi) (JAK3): A (a value of 3 or above)
JAK 1 (pKi) (JAK1): E (a pKi value of 7 or below (Ki of 100 nM or above))
Tall-1 (pIC50) [2]: A (a pIC50 value≥7.5 (IC50≤32 nM))

C=CC(=O)N1CC2(CC(Oc3nc(-c4ccc(O)cc4)nc4[nH]ncc34)C2)C1 [Compound 15-3]
combined stool score endpoint as compared with vehicle treated animals [1]: statistically significant decrease
JAK 2 (pKi) (JAK2): E (a pKi value of 7 or below (Ki of 100 nM or above))
Tyk 2 (pKi) (Tyk2): E (a pKi value of 7 or below (Ki of 100 nM or above))
JAK 3 (pKi) (JAK3): A (a pKi value≥10 (Ki≤0.1 nM))
JAK3 (pKi)-JAK1 (pKi) (JAK3): A (a value of 3 or above)
JAK 1 (pKi) (JAK1): E (a pKi value of 7 or below (Ki of 100 nM or above))
Tall-1 (pIC50) [2]: A (a pIC50 value≥7.5 (IC50≤32 nM))

CN(C)C/C=C/C(=O)N1CC(C(C)(C)Oc2cc(-c3ccc(O)c(F)c3)cc3[nH]ncc23)C1 [Compound 19, (E)-1-(3-(2-((6-(3-fluoro-4-hydroxyphenyl)-1H-indazol-4-yl)oxy)propan-2-yl)azetidin-1-yl)-4-(dimethylamino)but-2-en-1-one]
Kp [3]: > 200
combined stool score endpoint as compared with vehicle treated animals [1]: statistically significant decrease
IC50 [4]: < 1000 nM

CN(C)C/C=C/C(=O)N1CC(C(C)(C)Oc2cc(-c3ccc(O)c(Cl)c3)cc3[nH]ncc23)C1 [Form 1, (E)-1-(3-(2-((6-(3-chloro-4-hydroxyphenyl)-1H-indazol-4-yl)oxy)propan-2-yl)azetidin-1-yl)-4-(dimethylamino)but-2-en-1-one]
hygroscopicity [5]: slightly hygroscopic
weight gain (moisture uptake) [5]: about 1.62%

CN(C)C/C=C/C(=O)N1CC(C(C)(C)Oc2cc(-c3ccc(O)c(Cl)c3)cc3[nH]ncc23)C1 [Form 2, (E)-1-(3-(2-((6-(3-chloro-4-hydroxyphenyl)-1H-indazol-4-yl)oxy)propan-2-yl)azetidin-1-yl)-4-(dimethylamino)but-2-en-1-one]
weight gain (moisture uptake) [5]: 7.99%

CN(C)C/C=C/C(=O)N1CC(COc2cc(-c3ccc(O)cc3)cc3[nH]ncc23)C1 [Form 3, (E)-4-(dimethylamino)-1-(3-(((6-(4-hydroxyphenyl)-1H-indazol-4-yl)oxy)methyl)azetidin-1-yl)but-2-en-1-one]
hygroscopicity [5]: non-hygroscopic
weight gain (moisture uptake) [5]: about 0.33%

CN(C)C/C=C/C(=O)N1CC(COc2cc(-c3ccc(O)cc3)cc3[nH]ncc23)C1 [Form 4, (E)-4-(dimethylamino)-1-(3-(((6-(4-hydroxyphenyl)-1H-indazol-4-yl)oxy)methyl)azetidin-1-yl)but-2-en-1-one]
hygroscopicity [5]: moderately hygroscopic
weight gain (moisture uptake) [5]: about 5.01%
